Experimental data published in patent publication US20100152188A1, “Novel Heterocyclic Compounds” (priority 2005, published 2010).

Assays:
HCT116 = test: Anti-cancer screen (MTT), HCT116; format: cell-based; details: Homo sapiens, HCT-116, 48 hours with compound, tested at 0.01-100 µM
In short: (§1)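 Growth inhibition is measured by MTT reduction after 48 h treatment of cells grown in DMEM with 10% fetal bovine serum. Percent growth uses T0 viability, measured just before dosing, so that net cell kill yields negative values and an LC50.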

HDAC = HDAC inhibition; format: biochemical; details: for HDAC Inhibition 1 μM: compound at 1 μM; for HDAC Inhibition 10 μM: compound at 10 μM
NCIH460 = test: Anti-cancer screen (MTT), NCIH460; format: cell-based; details: Homo sapiens, NCI-H460, 48 hours with compound, tested at 0.01-100 µM
In short: as §1

MDAMB-231/U 251 = test: Anti-cancer screen (MTT), MDAMB-231/U 251; format: cell-based; details: for CC50: 48 h, read-out: MDAMB-231/U 251 LC50; for GI50 / IC (TGI): 48 hours with compound, MTT, tested at 0.01-100 µM
In short: as §1

[1] = system: NCIH460, HCT116, MDAMB-231/U 251; test: Anti-cancer screen, mean GI50 over the cell lines; format: cell-based; details: in µM
In short: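 HCT116, NCIH460 and U251 cells (5000/well) were seeded for 24 h, then exposed in triplicate to 0.01, 0.1, 1, 10 and 100 µM final compound for 48 h. Viability was read by MTT (3 h, absorbance 570 nm), and percent growth was calculated against untreated controls and a T0 plate read at compound addition.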

Compound | GI50 (HCT116) | IC (TGI) (HCT116) | LC50 (concentration giving 50% net cell kill relative to T0) (HCT116) | IC50 (HDAC) | HDAC Inhibition 1 μM (HDAC) | HDAC Inhibition 10 μM (HDAC) | GI50 (NCIH460) | IC (TGI) (NCIH460) | LC50 (NCIH460) | CC50 (MDAMB-231/U 251) | GI50 (MDAMB-231/U 251) | IC (TGI) (MDAMB-231/U 251) | Mean GI50 [1]
O=C(NCc1ccc(C(=O)NO)cc1)OCc1nc2ccccc2s1 [Example 30, 1,3-Benzothiazol-2-ylmethyl{4-[(hydroxyamino)carbonyl]benzyl}carbamate] | 0.23 µM | 7 µM | 61 µM | 0.14 µM | 84 | 84.6 | 0.02 µM | 0.05 µM | 73 µM | > 100 µM | 0.78 µM | > 100 µM | 0.3
CC(=O)ONC(=O)c1ccc(CNC(=O)OCc2cccs2)cc1 [Example 82, 2-Thienylmethyl(4-{[(acetyloxy)amino]carbonyl}benzyl)carbamate] | 7 µM | 41 µM | 78 µM |  | 48.96 | 86.12 | 24 µM | 62 µM | > 100 µM | > 100 µM | 28 µM | 52 µM | 19.66
O=C(NCc1ccc(C(=O)Nc2ccccc2NC(=O)c2ccc3c(c2)OCO3)cc1)OCc1cccs1 [Example 106, 2-thienylmethyl(4-[({(2-{1,3-benzodioxol-5-ylcarbonyl}amino)-phenyl}amino)carbonyl]benzyl)carbamate] | > 100 µM | > 100 µM | > 100 µM |  | 2.1 | 7.2 | 0.44 µM | 107 µM | > 100 µM | > 100 µM | 5.2 µM | > 100 µM | 2.8
CC(=O)N(O)C(=O)Cc1csc(NC(=O)OCc2ccsc2)n1 [Example 77, 3-thienylmethyl(4-{2-[acetyl(hydroxy)amino]-2-oxoethyl}-1,3-thiazol-2-yl)carbamate] | 60 µM | > 100 µM | > 100 µM |  | 7.7 | 14.8 | 53 µM | > 100 µM | > 100 µM | > 100 µM | 6 µM | 65 µM | 39.7
O=C(NCc1ccc(C(=O)NO)cc1)OCc1ccsc1 [Example 27, 3-Thienylmethyl{4-[(hydroxyamino)carbonyl]benzyl}carbamate] | 7 µM | 21 µM | 72 µM | 0.58 µM | 67.65 | 81.85 | 34 µM | 64 µM | 100 µM | > 100 µM | > 100 µM | > 100 µM | 24.9
CC(=O)ONC(=O)c1ccc(CNC(=O)OCc2nccs2)cc1 [Example 83, 1,3-thiazol-2-ylmethyl(4-{[(acetyloxy)amino]carbonyl}benzyl)carbamate] | 10 µM | 56 µM | 84 µM |  | 22.38 | 63.89 | 30 µM | 60 µM | 90 µM | > 100 µM | 9 µM | 66 µM | 16.33
O=C(Cc1csc(NC(=O)OCC2COc3ccccc3O2)n1)NO (stereo not drawn) [Example 5, 2,3-Dihydro-1,4-benzodioxin-2-ylmethyl{4-[2-(hydroxyamino)-2-oxoethyl]1,3-thiazol-2-yl}carbamate] | 40 µM | 80 µM | > 100 µM |  | 0.65 | 29.29 | 18 µM | 76 µM | > 100 µM | > 100 µM | 6 µM | 78 µM | 21.3
O=C(NCc1ccc(C(=O)N2CCN(Cc3ccc4c(c3)OCO4)CC2)cc1)OCc1nc2ccccc2s1 [Example 66, 1,3-Benzothiazol-2-ylmethyl(4-{[4-(1,3-benzodioxol-5-ylmethyl)piperazin-1-yl]carbonyl}benzyl)carbamate] | 4.8 µM | > 100 µM | > 100 µM |  | 8.57 | 12.98 | 1 µM | > 100 µM | > 100 µM | > 100 µM | 6 µM | > 100 µM | 3.93
O=C(Cc1csc(NC(=O)OCc2nc3ccccc3s2)n1)NO [Example 9, 1,3-Benzothiazol-2-ylmethyl{4-[2-(hydroxyamino)-2-oxoethyl]-1,3-thiazol-2-yl}carbamate] | 48 µM | > 100 µM | > 100 µM |  | 17.52 | 46.21 | 73 µM | > 100 µM | > 100 µM | > 100 µM | 38 µM | > 100 µM | 53
Nc1cccc(NC(=O)c2ccc(CNC(=O)OCc3cccs3)cc2)c1 [Example 55, 2-Thienylmethyl(4-{[(3-aminophenyl)amino]carbonyl}benzyl)carbamate] | 18 µM | > 100 µM | > 100 µM |  | 7.41 | 26 | 4 µM | 40 µM | > 100 µM | 45 µM | 0.07 µM | 0.6 µM | 7
CON(C)C(=O)c1ccc(CNC(=O)OCc2cccs2)cc1 [Example 48, 2-Thienylmethyl(4-{[methoxy(methyl)amino]carbonyl}benzyl)carbamate] | 4.3 µM | 9 µM | 65 µM |  | 4.8 | 1.9 | 1 µM | 31 µM | > 100 µM | > 100 µM | 0.03 µM | 57 µM | 1.8
O=C(NCc1ccc(C(=O)NO)cc1)OCc1ccnc2ccccc12 [Example 37, Quinolin-4-ylmethyl{4-[(hydroxyamino)carbonyl]benzyl}carbamate] | 6 µM | 20 µM | 65 µM |  | 67.04 | 85.01 | 30 µM | 58 µM | 90 µM | 95 µM | 4 µM | 18 µM | 13.3
O=C(NCc1ccc(C(=O)NO)cc1)OCc1nc2ccccc2[nH]1 [Example 33, 1H-Benzimidazol-2-ylmethyl{4-[(hydroxyamino)carbonyl]benzyl}carbamate] | 4.5 µM | 20 µM | > 100 µM | 0.25 µM | 82.77 | 92.11 | 1 µM | 68 µM | > 100 µM | 60 µM | 3 µM | 8 µM | 2.8
